Measurements as given in publication PMC9668914, “Understanding VPAC receptor family peptide binding and selectivity” (Nature Communications, 2022).
No end group written: not given here.

Target: T1, VPAC1R (Homo sapiens, UniProt P32241)
T1 construct: An HA signal peptide was inserted in place of the native signal peptide of the receptors; HA signal peptide (replaces the native signal peptide) (N); 3C protease cleavage sites (between FLAG and receptor, and between receptor and His) (internal); expressed in transfected cells; host or cells: COS-7 (transient, PEI)
T1 sequence (P32241 31-457): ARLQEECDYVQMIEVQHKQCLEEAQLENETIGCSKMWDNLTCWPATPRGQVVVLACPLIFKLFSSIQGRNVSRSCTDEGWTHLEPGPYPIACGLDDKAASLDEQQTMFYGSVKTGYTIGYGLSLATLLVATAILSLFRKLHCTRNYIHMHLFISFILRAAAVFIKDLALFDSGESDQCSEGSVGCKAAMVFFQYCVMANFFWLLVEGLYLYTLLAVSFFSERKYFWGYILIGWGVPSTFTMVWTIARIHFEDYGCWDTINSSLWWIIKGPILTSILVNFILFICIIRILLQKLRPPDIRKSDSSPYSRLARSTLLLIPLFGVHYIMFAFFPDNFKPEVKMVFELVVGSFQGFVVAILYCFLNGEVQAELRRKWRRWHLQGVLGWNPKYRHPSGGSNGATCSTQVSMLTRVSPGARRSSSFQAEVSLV
Test: cAMP accumulation, chimeric peptides (Fig. 5a)
Assay type: cell-based
Conditions: pEC50, VPAC1R cAMP, COS-7, three-parameter logistic
Protocol: COS-7 cells were used for the chimeric peptide and cysteine mutagenesis pharmacological assays due to their lack of endogenous expression of PAC1R and receptor activity-modifying proteins, reported to potentially heterodimerize with PAC1R and VPAC1R[42]. […] COS-7 cells were plated in 10 cm dishes at approximately 1 million cells/dish. Cells were transfected 24 h later, with 5 µg of either WT or mutant PAC1R or VPAC1R receptor DNA. DNA and PEI (in a 1:6 ratio) were each diluted in 150 mM NaCl, and then combined and incubated for 10 min, before the mixture was added to the 10 cm dish. The next day, cells were harvested from the 10 cm dishes using Trypsin-Versene (PBS + 0.5 mM EDTA, pH 7.4), and were seeded at a density of 15,000 cells/well into clear 96-well culture plates and incubated overnight at 37 °C in 5% CO2 for cAMP accumulation assay the next day.
The reaction was terminated after 30 min by aspiration of the buffer and addition of 50 μl of ice-cold ethanol. Upon evaporation of ethanol, 75 μl of lysis buffer (5 mM HEPES, 0.1% (w/v) OVA, 0.3% (w/v) Tween20, pH 7.4) was added to the cells. cAMP detection was performed using a LANCE cAMP Detection Kit (PerkinElmer) for the construct validation and cysteine mutagenesis pharmacological assays and cAMP Gs HiRange kit (Cisbio) for the chimeric peptide pharmacological assays. The plates were read using an EnVision plate reader with excitation at 320 nm and emission at 615 nm[45].
The pharmacological data in figures and tables are reported as mean + standard error of the mean (SEM) with the number of biological replicates indicated in the figure and table legends where “n” represents the number of biological replicates performed. Concentration-response data were analyzed in GraphPad Prism version 9.4.0 using a three-parameter logistic curve to derive pEC50 values for the cyclic AMP accumulation. Competition binding data were analyzed in GraphPad Prism using the one site—Fit log IC50 model to derive pIC50 values. For the cysteine mutagenesis data, comparisons of multiple different groups were performed using one-way analysis of variance (ANOVA), followed by Dunnett’s post-hoc test with the control group being the WT receptor, with significance accepted at p < 0.05. For the chimeric peptide data, comparisons of multiple different groups were performed using one-way ANOVA, followed by Tukey’s post-hoc test, with significance accepted at p < 0.05.

## CC[C@H](C)[C@H](NC(=O)[C@H](C)NC(=O)[C@H](CC(=O)O)NC(=O)[C@H](CO)NC(=O)[C@@H](N)Cc1cnc[nH]1)C(=O)N[C@@H](Cc1ccccc1)C(=O)N[C@H](C(=O)N[C@@H](CC(=O)O)C(=O)N[C@@H](CO)C(=O)N[C@@H](Cc1ccc(O)cc1)C(=O)N[C@@H](CO)C(=O)N[C@@H](CCCNC(=N)N)C(=O)N[C@@H](Cc1ccc(O)cc1)C(=O)N[C@@H](CCCNC(=N)N)C(=O)N[C@@H](CCCCN)C(=O)N[C@@H](CCC(N)=O)C(=O)N[C@@H](CCSC)C(=O)N[C@@H](C)C(=O)N[C@H](C(=O)N[C@@H](CCCCN)C(=O)N[C@@H](CCCCN)C(=O)N[C@@H](Cc1ccc(O)cc1)C(=O)N[C@@H](CC(C)C)C(=O)N[C@@H](C)C(=O)N[C@@H](C)C(=O)N[C@H](C(=O)N[C@@H](CC(C)C)C(N)=O)C(C)C)C(C)C)[C@@H](C)O [Ala4 PACAP27]
Replicate n=1
  EC50: 2.25 nM
Replicate n=2
  EC50: 2.52 nM
Replicate n=3
  EC50: 9.38 nM
Replicate n=4
  EC50: 1.73 nM
Replicate n=5
  EC50: 12.4 nM

## HSDGVFTDNYTRLRKQMAVKKYLNSILN-NH2 [Gly4 VIP]
Replicate n=1
  EC50: 1.26 nM
Replicate n=2
  EC50: 0.995 nM
Replicate n=3
  EC50: 1.64 nM
Replicate n=4
  EC50: 1.7 nM
Replicate n=5
  EC50: 1.39 nM
